Data as given in patent publication US11716994B2, “Combinations of Yersinia entomophaga and pesticides or other substances” (priority 2017, dated 2023).
Where “and” joins values, the source holds several entries; their conditions need not be identical. Identical values can stand only once. Like-named read-outs stand apart in the source and are kept apart here.

Assays:
cabbage looper [1] = system: cabbage looper
Yersinia entomophaga = assay: CFU counts after exposure of Yersinia entomophaga to insecticides; format: cell-based; details: 1 hour contact
Excerpt: To test combinations of Yersinia entomophaga and pesticides for their ability to produce a pesticidal effect, or an effect on plant growth or yield, we first put various insecticides in contact with Yersinia to identify insecticides that had minimal toxicity to Yersinia entomophaga. The logic was that, if Yersinia entomophaga is to function well in combination with a chemical insecticide, the chemical insecticide would ideally have low or no effect on the ability of Yersinia entomophaga to survive, grow and/or to function.
To perform this study, we selected amounts of various insecticides based on the percent of the specific insecticide in the insecticide composition obtained from a manufacturer. We also considered the application rate of the particular insecticide, as recommended by the manufacturer. […] Generally, the 1× amount was considered possibly the lowest amount of insecticide that may be considered as an effective amount for use in the combinations disclosed herein. For each insecticide, we also used a higher amount of insecticide (generally a 5× or 10× amount).
The 1× and 5×/10× amounts of each insecticide were added to tubes along with 1 ml of ethyl acetate. The tubes were mixed until the insecticides dissolved. The tubes were left open in a fume hood overnight to allow the ethyl acetate to evaporate. The insecticide remained in the tubes, as a solid coat on the interior surface of the tubes.
A growing culture of Yersinia entomophaga, grown in LB medium, was diluted and 1 ml of the diluted culture was added to each tube containing the dried insecticide. The tubes were mixed and then left on the bench top for 1 hour. Then, 100 μl from each tube was plated onto LB plates in triplicate in CFU assays. Plates were incubated at 25° C. for 48 hours and colonies were counted.

cabbage looper [2] = system: cabbage looper; remark: listed apart in the source
fall armyworm [3] = system: fall armyworm
Method: To produce cell free filtrates, cultures of Yersinia entomophaga grown in LB medium were centrifuged at 11,448 (g) for 10 minutes. The supernatant was decanted from the centrifuged pellet and filtered through a 0.22 μm filter. Assays were performed to determine concentrations of Yen-TC (toxin complex) using ELISA, and chitinase by measuring chitinase activity on specific substrates. […] This was done to estimate relative potency of the cell free filtrates. Insects were first pre-screened with a range of dilutions of cell free filtrates to select a concentration that provided moderate activity. […] Based on these initial screens, undiluted cell free filtrate was used for cabbage looper, fall armyworm, black cutworm, and Colorado potato beetle.
Cabbage leaf disks were dipped in either acetone (controls and Y. entomophaga alone treatments) or fipronil (Sigma 46451) at 12 mg/L in acetone. These were set to dry for 1 hr. […] After the cabbage disks had dried for 1 hr, a single 3rd instar fall armyworm was added to each individual cabbage disk. A total of 20 insects were evaluated for each treatment. Insects were observed daily and scored as live or dead.
Cabbage leaf disks were dipped in either acetone (controls and Y. entomophaga alone treatments) or esfenvalerate (Sigma 46277) at 56 mg/L in acetone. These were set to dry for 1 hr. […] After the cabbage disks had dried for 1 hr, a single 3rd instar fall armyworm was added to each individual cabbage disk. A total of 20 insects were evaluate for each treatment. Insects were observed daily and scored as live or dead.

fall armyworm [4] = assay: Leaf disk mortality assay, Y. entomophaga cells with chemical insecticides; details: for % Mortality (3DAT) / LT50 (95% confidence intervals) in days: 4th instar; for % Mort. Chem.: fall armyworm, Esfenvalerate 56 mg/L
black cutworm [5] = assay: as above; details: for % Mort. Chem. / LT50 Chem.: black cutworm
black cutworm [6] = system: black cutworm
Method: To produce cell free filtrates, cultures of Yersinia entomophaga grown in LB medium were centrifuged at 11,448 (g) for 10 minutes. The supernatant was decanted from the centrifuged pellet and filtered through a 0.22 μm filter. Assays were performed to determine concentrations of Yen-TC (toxin complex) using ELISA, and chitinase by measuring chitinase activity on specific substrates. […] This was done to estimate relative potency of the cell free filtrates. Insects were first pre-screened with a range of dilutions of cell free filtrates to select a concentration that provided moderate activity. […] Based on these initial screens, undiluted cell free filtrate was used for cabbage looper, fall armyworm, black cutworm, and Colorado potato beetle. […] In each of the Examples below, this is expressed as 1%.
Cabbage leaf disks were dipped in either acetone (controls and Y. entomophaga alone treatments) or in indoxacarb (Sigma 33969) at 0.53 mg/L in acetone. These were set to dry for 1 hr. […] After the cabbage disks had dried for 1 hr, a single 2nd instar black cutworm was added to each individual cabbage disk. A total of 20 insects were evaluate for each treatment. Insects were observed daily and scored as live or dead.
Cabbage leaf disks were dipped in either acetone (controls and Y. entomophaga alone treatments) or in flubendiamide (Sigma 32801) at 0.59 mg/L in acetone. These were set to dry for 1 hr. […] After the cabbage disks had dried for 1 hr, a single 2nd instar black cutworm was added to each individual cabbage disk. A total of 20 insects were evaluate for each treatment. Insects were observed daily and scored as live or dead.

[7] = 3rd instar, esfenvalerate 5.6 mg/L, isolate O24G3R 1×10^4 cfu/mL
[8] = 3rd instar, esfenvalerate 56 mg/L, isolate O43NEW 1×10^6 cfu/mL
[9] = esfenvalerate 56 mg/L, isolate O23ZMJ 1×10^5 cfu/mL
[10] = esfenvalerate 56 mg/L, isolate O24G3R 1×10^5 cfu/mL
[11] = esfenvalerate 56 mg/L, isolate O348UX 1×10^5 cfu/mL
[12] = 3rd instar, esfenvalerate 5.6 mg/L, isolate O23ZMJ 1×10^5 cfu/mL
[13] = 3rd instar, esfenvalerate 5.6 mg/L, isolate O24G3R 1×10^5 cfu/mL
[14] = 3rd instar, esfenvalerate 5.6 mg/L, isolate O43NEW 1×10^5 cfu/mL
[15] = 3rd instar, esfenvalerate 5.6 mg/L, isolate O348UX 1×10^5 cfu/mL

For `CC(C)[C@H](C(=O)O[C@H](C#N)c1cccc(Oc2ccccc2)c1)c1ccc(Cl)cc1` [Esfenvalerate], the “% Mort. Chem.” value (cabbage looper [1]; cabbage looper, Esfenvalerate 0.56 mg/L, 7 DAT) was 37%, the “LT50 Chem.” value (cabbage looper [1]; cabbage looper, Esfenvalerate alone 0.56 mg/L) was 5.63 days and the “% Mortality (2DAT)” value (cabbage looper [1]; in vivo) was 5%. The “LT50 (95% confidence intervals) in days” value (cabbage looper [1]; in vivo) was 5.63 (5.19-6.11) days, the “Average CFU” value (Yersinia entomophaga; 0.8 mg insecticide) was 258 CFU and the “Average CFU” value (Yersinia entomophaga; 5.3 mg insecticide) was 0 CFU. The “LT50 Chem.” value (cabbage looper [2]; Cabbage Looper, esfenvalerate 0.56 mg/L) was 5.23 days, the “% Mort. Chem.” value (cabbage looper [2]; Cabbage Looper, esfenvalerate 0.56 mg/L, 5 DAT) was 40% and the “% Mortality (5DAT)” value (cabbage looper [2]; in vivo) was 40%. For the same compound, the “% Mortality (6DAT)” value (cabbage looper [2]; in vivo) was 70%, the “% Mortality (8DAT)” value (cabbage looper [2]; in vivo) was 83% and the “LT50 (95% confidence intervals) in days” value (cabbage looper [2]; in vivo) was 5.23 (4.69-5.79) days. The “LT50 Chem.” value (fall armyworm [3]; Fall armyworm, esfenvalerate 56 mg/L) was 9.84 days, the “% Mort. Chem.” value (fall armyworm [3]; fall armyworm, Esfenvalerate 56 mg/L, 5 DAT) was 40% and the “% Mortality (5DAT)” value (fall armyworm [3]; in vivo) was 40%. The “% Mortality (7DAT)” value (fall armyworm [3]; in vivo) was 45%, the “LT50 (95% confidence intervals)” value (fall armyworm [3]; in vivo) was 9.84 days and the “% Mortality (6DAT)” value (fall armyworm [4]; [7]) was 0%. The “LT50 (95% confidence intervals)” value (fall armyworm [4]; [7]) was 20.00 days, the “% Mortality (5DAT)” value (fall armyworm [4]; [8]) was 5% and the “% Mortality (7DAT)” value (fall armyworm [4]; [8]) was 5%. For the same compound, the “% Mortality (9DAT)” value (fall armyworm [4]; [8]) was 11%, the “% Mortality (11DAT)” value (fall armyworm [4]; [8]) was 6% and the “LT50 (95% confidence intervals)” value (fall armyworm [4]; [8]) was 13.6 days. For the same compound, the “% Mortality (3DAT)” value (fall armyworm [4]; [9]) was 25%, the “LT50 (95% confidence intervals) in days” value (fall armyworm [4]; [9]) was 3.66 (3.28-4.09) days and the “% Mortality (3DAT)” value (fall armyworm [4]; [10]) was 25%. For the same compound, the “LT50 (95% confidence intervals) in days” value (fall armyworm [4]; [10]) was 3.66 (3.28-4.09) days, the “% Mortality (3DAT)” value (fall armyworm [4]; [11]) was 25% and the “LT50 (95% confidence intervals) in days” value (fall armyworm [4]; [11]) was 3.66 (3.28-4.09) days. For the same compound, the “% Mort. Chem.” value (fall armyworm [4]; 3 DAT (row with O23ZMJ)) was 25%, the “% Mort. Chem.” value (fall armyworm [4]; 3 DAT (row with O24G3R 1 × 10^5)) was 25% and the “% Mort. Chem.” value (fall armyworm [4]; 3 DAT (row with O348UX)) was 25%. The “% Mort. Chem.” value (fall armyworm [4]; 5 DAT) was 5%, the “% Mort. Chem.” value (fall armyworm [4]; 6 DAT) was 0% and the “% Mortality (3DAT)” value (black cutworm [5]; [12]) was 42%. For the same compound, the “% Mortality (4DAT)” value (black cutworm [5]; [12]) was 61%, the “LT50 (95% confidence intervals) in days” value (black cutworm [5]; [12]) was 3.40 (3.03-3.81) days and the “% Mortality (5DAT)” value (black cutworm [5]; [13]) was 50%. The “% Mortality (6DAT)” value (black cutworm [5]; [13]) was 56%, the “% Mortality (7DAT)” value (black cutworm [5]; [13]) was 69% and the “LT50 (95% confidence intervals) in days” value (black cutworm [5]; [13]) was 5.29 (4.75-5.87) days. The “% Mortality (3DAT)” value (black cutworm [5]; [14]) was 40%, the “% Mortality (4DAT)” value (black cutworm [5]; [14]) was 45% and the “LT50 (95% confidence intervals) in days” value (black cutworm [5]; [14]) was 3.97 (3.60-4.38) days. The “% Mortality (5DAT)” value (black cutworm [5]; [15]) was 50%, the “% Mortality (6DAT)” value (black cutworm [5]; [15]) was 56% and the “% Mortality (7DAT)” value (black cutworm [5]; [15]) was 69%. The “LT50 (95% confidence intervals)” value (black cutworm [5]; [15]) was 5.29 days, the “% Mort. Chem.” value (black cutworm [5]; Esfenvalerate 1.87 mg/L, 5 DAT (row with O24G3R)) was 50% and the “% Mort. Chem.” value (black cutworm [5]; Esfenvalerate 1.87 mg/L, 5 DAT (row with O348UX)) was 50%. The “% Mort. Chem.” value (black cutworm [5]; Esfenvalerate 5.6 mg/L, 4 DAT (row with O23ZMJ)) was 61%, the “% Mort. Chem.” value (black cutworm [5]; Esfenvalerate 5.6 mg/L, 4 DAT (row with O43NEW)) was 45% and the “LT50 Chem.” value (black cutworm [5]; Esfenvalerate alone 1.87 mg/L) was 5.29 days. For the same compound, the “LT50 Chem.” value (black cutworm [5]; Esfenvalerate alone 5.6 mg/L) was 3.97 days and 3.40 days, the “LT50 Chem.” value (black cutworm [6]; Black cutworm, esfenvalerate 5.6 mg/L) was 3.68 days and the “% Mort. Chem.” value (black cutworm [6]; Black cutworm, esfenvalerate 5.6 mg/L, 6 DAT) was 84%. The “% Mortality (6DAT)” value (black cutworm [6]; in vivo) was 84% and the “LT50 (95% confidence intervals)” value (black cutworm [6]; in vivo) was 3.68 days.
